Measured values from US10053451B2, “Heterocyclic estrogen receptor modulators and uses thereof” (priority 2015, dated 2018).

Assays:
Type in all cases: cell-based
MCF-7 cells = experiment: Breast Cancer Cell Viability Assay (CellTiter-Glo); conditions: 5 days of compound exposure; for IC50: Homo sapiens, MCF7, 120 h, read-out: MCF7 viab IC50
Protocol: The following day a 10 point, serial 1:5 dilution of each compound was added to the cells in 16 μL at a final concentration ranging from 10-0.00000 μM. After 5 days of compound exposure, 16 μL of CellTiter-GLo (Promega, Madison Wis.) was added to the cells, and the relative luminescence units (RLUs) of each well were determined. CellTiter-Glo added to 32 μL of medium without cells was used to obtain a background value.

ER-α = target: T1, ER-α (Homo sapiens, UniProt P03372); experiment: ER-α In Cell Western Assay; conditions: MCF7 cells, 4 hours post compound addition, SP1 anti-ER antibody; read-out: ICW (SP1) max response
T1 construct: MCF7 cells were trypsinized and washed twice; endogenous in cells; host or cells: MCF7 breast cancer cells
T1 sequence (P03372 1-595): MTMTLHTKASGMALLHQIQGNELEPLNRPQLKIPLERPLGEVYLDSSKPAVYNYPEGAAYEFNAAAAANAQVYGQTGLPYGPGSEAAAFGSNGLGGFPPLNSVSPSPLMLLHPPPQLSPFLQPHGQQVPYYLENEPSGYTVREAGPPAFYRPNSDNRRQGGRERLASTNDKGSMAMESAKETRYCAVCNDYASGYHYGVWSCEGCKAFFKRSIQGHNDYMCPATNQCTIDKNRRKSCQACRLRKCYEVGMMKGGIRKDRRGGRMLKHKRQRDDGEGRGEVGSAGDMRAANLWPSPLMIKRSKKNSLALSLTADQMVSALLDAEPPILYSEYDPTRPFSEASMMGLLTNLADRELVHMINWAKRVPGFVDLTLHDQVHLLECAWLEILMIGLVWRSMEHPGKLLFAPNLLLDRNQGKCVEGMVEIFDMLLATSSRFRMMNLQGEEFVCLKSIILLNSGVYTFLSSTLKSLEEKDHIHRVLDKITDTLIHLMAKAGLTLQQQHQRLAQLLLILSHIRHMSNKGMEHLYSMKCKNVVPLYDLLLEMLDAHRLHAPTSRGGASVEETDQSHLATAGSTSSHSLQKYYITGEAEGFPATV
Protocol: MCF7 cells were trypsinized and washed twice in Phenol Red Free RPMI containing 5% Charcoal Dextran Stripped serum with 20 mM HEPES and NEAA, then adjusted to a concentration of 200,000 cells per mL with the same medium. Next, 16 μL of the cell suspension (3200 cells) was added to each well of a poly-D-lysine coated 384 well plate, and the cells were incubated at 37° C. over 4 days to allow the cells to adhere and grow. […] At 4 hours post compound addition, the cells were fixed by adding 16 μL of 30% formalin to the 32 μL of cells and compound (10% formalin final concentration) for 20 minutes. Cells were then washed twice with PBS Tween 0.1% and then permeabilized in PBS 0.1% Triton (50 μl/well) for additional 15 minutes. The PBS 0.1% triton was decanted, and the cells were washed: LI-COR blocking buffer (50 μL/well) was added, the plate was spun at 3000 rpm, and then the blocking buffer was decanted. Additional LI-COR blocking buffer (50 μL/well) was added, and the cells were incubated overnight at 4° C. The blocking buffer was decanted, and the cells were incubated overnight at 4° C. with SP1 (Thermo Scientific) anti-ER rabbit monoclonal antibody diluted 1:1000 in LI-COR blocking buffer/0.1% Tween-20. Wells which were treated with blocking buffer with Tween but no antibody were used as a background control. Wells were washed twice with PBS Tween 0.1% to remove free SP1 antibodies, and the cells were incubated at room temp for 60-90 minutes in LI-COR goat anti-rabbit IRDye™ 800CW (1:1000) and DRAQ5 DNA dye (1:10000 of 5 mM stock solution) diluted in LI-COR blocking buffer containing 0.1% Tween-20 and 0.01% SDS. Cells were then washed with 0.1% Tween-20/PBS three times. Plates were scanned on a LI-COR Odyssey infrared imaging system. Integrated intensities in the 800 nm channel and 700 nm channel were measured to determine levels of ER-α and DNA respectively. Percent ER levels were determined as follows: (Integrated intensity […] sample/integrated intensity 700 nm sample)/(Integrated intensity 800 nm untreated cells/integrated intensity 700 nm untreated cells)×100=% ER levels.

[1] = target: T2, estrogen receptor alpha (ESR1) (Homo sapiens, UniProt P03372); experiment: Breast Cancer Cell ERa High Content Fluorescence Imaging Assay (ER-alpha MCF7 Assay); conditions: MCF7 cells, 4 hours; plateau of maximal effect; DMSO = 0%, 5 nM Fulvestrant = 100% change in ESR1
T2 construct: MCF7 cells were trypsinized and washed twice; endogenous in cells; host or cells: MCF7 breast cancer cells
T2 sequence (P03372 1-595): T1 sequence (P03372 1-595)
Protocol: Cell plates were incubated at 37° C., for 4 hours. Fixation and permeabilization were carried out using a Biotek EL406 plate washer and dispenser as follows. […] Samples were incubated 30 minutes. Well contents was aspirated and 50 uL/well of Phosphate Buffered Saline (PBS) containing 0.5% w/v bovine serum albumen, 0.5% v/v Triton X-100 (Antibody Dilution Buffer) was added to each well. Samples were incubated for 30 minutes. Well contents were aspirated and washed 3 times with 100 uL/well of PBS. Immunofluorescence staining of estrogen receptor alpha (ESR1) was carried out using a Biotek EL406 plate washer and dispenser as follows. […] Samples were incubated for 2 hours at room temperature. Samples were washed 4 times with 100 uL/well of PBS. […] Samples were incubated for 2 hours at room temperature. Samples were washed 3 times with 100 uL/well of PBS using a Biotek EL406. Quantitative fluorescence imaging of ESR1 was carried out using a Cellomics Arrayscan V (Thermo). […] Channel 1 (DNA stain) was used to define the nuclear region (Circ). […] The “Robust Fit” method was used to define the inflexion point of curve (EC50) and the plateau of the maximal effect (Sinf).

| SMILES | IC50 (MCF-7 cells) [nM] | Emax (ER-α) [%] | ER-alpha MCF7 Sinf (%) [1] [%] | MCF7 viab max response (MCF-7 cells) |
| --- | --- | --- | --- | --- |
| CC1=C(c2ccc3[nH]ncc3c2)C(c2ccc(OC[C@H](C)N3CC[C@@H](C)C3)cc2)Oc2ccc(O)cc21 (stereo partly drawn) [Example 12, 3-(1H-Indazol-5-yl)-4-methyl-2-(4-((S)-2-((R)-3-methylpyrrolidin-1-yl)propoxy)phenyl)-2H-chromen-6-ol] | 2.56 | 74.8 |  | 60.1 |
| CC1=C(c2ccc(O)cc2F)C(c2ccc(OC[C@H](C)N3CC[C@@H](C)C3)cn2)Oc2ccc(O)cc21 (stereo partly drawn) [Example 10, 3-(2-Fluoro-4-hydroxyphenyl)-4-methyl-2-(5-((S)-2-((R)-3-methylpyrrolidin-1-yl)propoxy)pyridin-2-yl)-2H-chromen-6-ol] | 0.74 | 83.4 |  | 70.9 |
| CC1=C(c2cccc(O)c2)C(c2cnc(OC[C@H](C)N3CC[C@@H](C)C3)cn2)Oc2ccc(O)cc21 (stereo partly drawn) [Example 3, 3-(3-Hydroxyphenyl)-4-methyl-2-(5-((S)-2-((R)-3-methylpyrrolidin-1-yl)propoxy)pyrazin-2-yl)-2H-chromen-6-ol] | 0.66 | 83.3 |  | 61.1 |
| CC1=C(c2cccc(O)c2)C(c2cnc(OCCN3CCCC3)cn2)Oc2ccc(O)cc21 (stereo not shown) [Example 4, 3-(3-Hydroxyphenyl)-4-methyl-2-(5-(2-(pyrrolidin-1-yl)ethoxy)pyrazin-2-yl)-2H-chromen-6-ol] | 0.36 | 70.1 |  | 49.5 |
| CC1=C(c2cccc(O)c2)C(c2ccc(OC[C@H](C)N3CC[C@@H](C)C3)nc2)Oc2ccc(O)cc21 (stereo partly drawn) [Example 2, 3-(3-Hydroxyphenyl)-4-methyl-2-(6-((S)-2-((R)-3-methylpyrrolidin-1-yl)propoxy)pyridin-3-yl)-2H-chromen-6-ol] | 0.13 | 76.1 |  | 56.9 |
| CC1=C(c2cccc(O)c2)C(c2ccc(OCCN3CCCC3)nc2)Oc2ccc(O)cc21 (stereo not shown) [Example 1, 3-(3-Hydroxyphenyl)-4-methyl-2-(6-(2-(pyrrolidin-1-yl)ethoxy)pyridin-3-yl)-2H-chromen-6-ol] | 0.18 | 65.9 |  | 53.6 |
| CC1=C(c2ccc(O)c(F)c2)C(c2ccc(OC[C@H](C)N3CC[C@@H](C)C3)cn2)Oc2ccc(O)cc21 (stereo partly drawn) [Example 9, 3-(3-Fluoro-4-hydroxyphenyl)-4-methyl-2-(5-((S)-2-((R)-3-methylpyrrolidin-1-yl)propoxy)pyridin-2-yl)-2H-chromen-6-ol] | 1.03 | 88 |  | 71.6 |
| C[C@]12CC[C@@H]3c4ccc(O)cc4C[C@@H](CCCCCCCCC[S+]([O-])CCCC(F)(F)C(F)(F)F)[C@H]3[C@@H]1CC[C@@H]2O (stereo partly shown) [fulvestrant, reference compound] | 0.56 | 93.6 |  | 74.6 |
| CC1=C(c2cccc(O)c2)C(c2ccc(OC[C@H](C)N3CC[C@@H](C)C3)cc2)Oc2ccc3[nH]ncc3c21 (stereo partly drawn) [Example 14, 3-(9-Methyl-7-(4-((S)-2-((R)-3-methylpyrrolidin-1-yl)propoxy)phenyl)-3,7-dihydropyrano[3,2-e]indazol-8-yl)phenol] | 0.83 | 77.8 |  | 62.3 |
| CC1=C(c2ccncc2C)C(c2ccc(OCCN3CC(CF)C3)cc2)Oc2ccc(O)cc21 (stereo not shown) [Example 32, 2-{4-[2-(3-Fluoromethyl-azetidin-1-yl)-ethoxy]-phenyl}-4-methyl-3-(3-methyl-pyridin-4-yl)-2H-chromen-6-ol] |  |  | 99.4 |  |

Now from value to compound, other results behind:

| IC50 (MCF-7 cells) [nM] | Emax (ER-α) [%] | ER-alpha MCF7 Sinf (%) [1] [%] | SMILES | MCF7 viab max response (MCF-7 cells) |
| --- | --- | --- | --- | --- |
| 17 | 74.1 |  | CC1=C(c2ccc3cn[nH]c3c2)C(c2ccc(OC[C@H](C)N3CC[C@@H](C)C3)cc2)Oc2ccc(O)cc21 (stereo partly drawn) [Example 11, 3-(1H-Indazol-6-yl)-4-methyl-2-(4-((S)-2-((R)-3-methylpyrrolidin-1-yl)propoxy)phenyl)-2H-chromen-6-ol] | 55.8 |
| 1.23 | 86.7 |  | CC1=C(c2cccc(O)c2)C(c2ccc(OC[C@H](C)N3CC[C@@H](C)C3)cn2)Oc2ccc(O)cc21 (stereo partly drawn) [Example 5, 3-(3-Hydroxyphenyl)-4-methyl-2-(5-((S)-2-((R)-3-methylpyrrolidin-1-yl)propoxy)pyridin-2-yl)-2H-chromen-6-ol] | 64.2 |
| 0.46 | 79.5 |  | CC1=C(c2cccc(O)c2)C(c2ccc(OC[C@H](C)N3CC[C@@H](C)C3)cc2)Oc2c1ccc1[nH]ncc21 (stereo partly drawn) [Example 15, 3-(4-Methyl-2-(4-((S)-2-((R)-3-methylpyrrolidin-1-yl)propoxy)phenyl)-2,7-dihydropyrano[2,3-e]indazol-3-yl)phenol] | 65.6 |
| 7.08 | 69.9 |  | CC1=C(c2cccc(O)c2)C(c2ccc(OCCN3CCCC3)cn2)Oc2ccc(O)cc21 (stereo not shown) [Example 6, 3-(3-Hydroxyphenyl)-4-methyl-2-(5-(2-(pyrrolidin-1-yl)ethoxy)pyridin-2-yl)-2H-chromen-6-ol] | 56.9 |
| 0.9 | 85.1 |  | CC1=C(c2cccc3[nH]ncc23)C(c2ccc(OC[C@H](C)N3CC[C@@H](C)C3)cc2)Oc2ccc(O)cc21 (stereo partly drawn) [Example 13, 3-(1H-Indazol-4-yl)-4-methyl-2-(4-((S)-2-((R)-3-methylpyrrolidin-1-yl)propoxy)phenyl)-2H-chromen-6-ol] | 65.9 |
| 1.36 | 85.9 |  | CC1=C(c2ccc(O)cc2)C(c2ccc(OC[C@H](C)N3CC[C@@H](C)C3)cn2)Oc2ccc(O)cc21 (stereo partly drawn) [Example 8, 3-(4-Hydroxyphenyl)-4-methyl-2-(5-((S)-2-((R)-3-methylpyrrolidin-1-yl)propoxy)pyridin-2-yl)-2H-chromen-6-ol] | 69.3 |
| 1.29 | 87.1 |  | CC1=C(c2cc(O)c(F)c(F)c2)C(c2ccc(OC[C@H](C)N3CC[C@@H](C)C3)cn2)Oc2ccc(O)cc21 (stereo partly drawn) [Example 7, 3-(3,4-Difluoro-5-hydroxyphenyl)-4-methyl-2-(5-((S)-2-((R)-3-methylpyrrolidin-1-yl)propoxy)pyridin-2-yl)-2H-chromen-6-ol] | 72.1 |
